One may read the IC50 as the point on the concentration scale where inhibition reaches its midpoint. Lower therefore signals inhibition by little substance.

Data on 35 compounds can be found in patent US20160083391A1, “TRICYCLIC PIPERAZINE DERIVATIVE” (Sunovion Pharmaceuticals Inc., priority 2014, published 2016).

In this assay the test system is PDE1. The experiment in a line: In vitro HTRF PDE1 inhibition assay. The class given is biochemical. Particulars: HTRF cGMP assay, 100 nM cyclic GMP, PDE (1A3, 1B or 1C) with calmodulin, 45 minutes at 37° C.; isoform of the tabulated values not stated. Summed up:
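Activities are given as IC50 bands (<1, 1-10, >10 μM) derived from a 665/615 nm time-resolved FRET readout after d2-cGMP/anti-cGMP cryptate detection. Enzymes PDE1A3, 1B or 1C plus calmodulin were incubated 45 min at 37 °C with 100 nM cGMP, 1% DMSO, CaCl2/MgCl2 Tris buffer pH 7.4.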
In the case of `COc1cccc(N2CCn3c(nn4c(C5CCCC5)ncc4c3=O)C2)c1` [Compound I-181, 3-Cyclopentyl-7-(3-methoxyphenyl)-8,9-dihydro-6H-imidazo[5,1-f]pyrazino[2,1-c][1,2,4]triazin-11(7H)-one], the IC50 was less than 1 µM.

Compound `O=c1c2cnn(C3CCC3)c2nc2n1CCN(c1ccc(Cl)cc1)C2` [Compound I-246, 8-(4-Chlorophenyl)-1-cyclobutyl-6,7,8,9-tetrahydropyrazino[1,2-a]pyrazolo[3,4-d]pyrimidin-4(1H)-one] registered an IC50 of 1 to 10 µM.

For `CC(C)c1n[nH]c2c(=O)n3c(nc12)CN(Cc1ccccc1)CC3` [Compound I-43, 6-Benzyl-3-isopropyl-5,6,7,8-tetrahydropyrazino[1,2-a]pyrazolo[4,3-d]pyrimidin-10(1H)-one], the IC50 is more than 10 µM.

Turning to `O=c1c2cnc(C3CCCC3)n2nc2n1CCN(Cc1cncnc1)C2` [Compound I-193, 3-Cyclopentyl-7-(pyrimidin-5-ylmethyl)-8,9-dihydro-6H-imidazo[5,1-f]pyrazino[2,1-c][1,2,4]triazin-11(7H)-one], the half-maximal inhibitory concentration (IC50) was in the range of 1 to 10 µM.

For `CC(C)c1ncc2c(=O)n3c(nn12)CN(Cc1cnccn1)CC3` [Compound I-204, 3-Isopropyl-7-(pyrazin-2-ylmethyl)-8,9-dihydro-6H-imidazo[5,1-f]pyrazino[2,1-c][1,2,4]triazin-11(7H)-one], the half-maximal inhibitory concentration (IC50) is 1 to 10 µM.

As for `Cc1cnc(CN2CCn3c(nc4c(cnn4C4CCCC4)c3=O)C2)nc1` [Compound I-199, 1-Cyclopentyl-8-((5-methylpyrimidin-2-yl)methyl)-6,7,8,9-tetrahydropyrazino[1,2-a]pyrazolo[3,4-d]pyrimidin-4(1H)-one], the half-inhibitory concentration (IC50) lay within 1 to 10 µM.

In the case of `CN1CCn2c(nc3[nH]ncc3c2=O)C1Cc1ccccc1` (racemic) [Compound I-23, (±)-9-Benzyl-8-methyl-6,7,8,9-tetrahydropyrazino[1,2-a]pyrazolo[3,4-d]pyrimidin-4(1H)-one], the concentration for half-maximal inhibition (IC50) was more than 10 µM.

`CC1NCCn2c1nc1c(cnn1C(C)C)c2=O` (racemic) [Compound I-4, (±)-1-Isopropyl-9-methyl-6,7,8,9-tetrahydropyrazino[1,2-a]pyrazolo[3,4-d]pyrimidin-4(1H)-one] showed an IC50 of more than 10 µM.

Compound `CC1Cn2c(nc3c(cnn3C(C)C)c2=O)CN1` (racemic) [Compound I-103, (±)-1-Isopropyl-7-methyl-6,7,8,9-tetrahydropyrazino[1,2-a]pyrazolo[3,4-d]pyrimidin-4(1H)-one] showed an IC50 of more than 10 µM.

Take `COc1ccc(CCN2CCn3c(nn4c(C5CCCC5)ncc4c3=O)C2)cc1` [Compound I-244, 3-Cyclopentyl-7-(4-methoxyphenethyl)-8,9-dihydro-6H-imidazo[5,1-f]pyrazino[2,1-c][1,2,4]triazin-11(7H)-one]: the IC50 lay within 1 to 10 µM.

For `COc1ccccc1CN1CCn2c(nc3c(cnn3CC(C)C)c2=O)C1` [Compound I-77, 1-Isobutyl-8-(2-methoxybenzyl)-6,7,8,9-tetrahydropyrazino[1,2-a]pyrazolo[3,4-d]pyrimidin-4(1H)-one], the 50% inhibitory concentration (IC50) lay within 1 to 10 µM.

Turning to `COc1ccc(CN2CCCn3c(nc4c(cnn4C(C)C)c3=O)C2)cc1` [Compound I-156, 1-Isopropyl-9-(4-methoxybenzyl)-7,8,9,10-tetrahydro-1H-pyrazolo[3′,4′:4,5]pyrimido[1,2-a][1,4]diazepin-4(6H)-one], the IC50 fell in the range of 1 to 10 µM.

In the case of `O=c1c2cnn(C3CC3)c2nc2n1CCN(c1ccc(Cl)cc1)C2` [Compound I-248, 8-(4-Chlorophenyl)-1-cyclopropyl-6,7,8,9-tetrahydropyrazino[1,2-a]pyrazolo[3,4-d]pyrimidin-4(1H)-one], the IC50 is less than 1 µM.

In turn, `CC(C)Cc1nnc2c(=O)n3c(nn12)CN(Cc1ccncc1)CC3` [Compound I-228, 3-Isobutyl-7-(pyridin-4-ylmethyl)-8,9-dihydro-6H-pyrazino[2,1-c][1,2,4]triazolo[3,4-f][1,2,4]triazin-11(7H)-one] gave an IC50 of 1 to 10 µM.

For the compound `O=c1c2ncn(C3CCCC3)c2nc2n1CCN(Cc1ccc(Cl)cc1)C2` [Compound I-126, 6-(4-Chlorobenzyl)-3-cyclopentyl-5,6,7,8-tetrahydropyrazino[1,2-a]purin-10(3H)-one], the half-maximal inhibitory concentration (IC50) is more than 10 µM.

On to `COc1ccc(CN2CCn3c(nn4c(C5CCCC5)ncc4c3=O)C2)cc1` [Compound I-133, 3-Cyclopentyl-7-(4-methoxybenzyl)-8,9-dihydro-6H-imidazo[5,1-f]pyrazino[2,1-c][1,2,4]triazin-11(7H)-one], for which the 50% inhibitory concentration (IC50) is less than 1 µM.

Compound `CC(C)n1ncc2c(=O)n3c(nc21)CN(Cc1cccc(F)c1)CC3` [Compound I-137, 8-(3-Fluorobenzyl)-1-isopropyl-6,7,8,9-tetrahydropyrazino[1,2-a]pyrazolo[3,4-d]pyrimidin-4(1H)-one] gave a half-inhibitory concentration (IC50) of 1 to 10 µM.

Consider `COc1cc(CN2CCn3c(nc4c(cnn4C(C)C)c3=O)C2)ccc1F` [Compound I-139, 8-(4-Fluoro-3-methoxybenzyl)-1-isopropyl-6,7,8,9-tetrahydropyrazino[1,2-a]pyrazolo[3,4-d]pyrimidin-4(1H)-one], for which the concentration for half-maximal inhibition (IC50) was more than 10 µM.

With `CC(C)c1nn(C)c2c(=O)n3c(nc12)C(C)N(Cc1ccccc1)CC3` (racemic) [Compound I-47, (±)-6-Benzyl-3-isopropyl-1,5-dimethyl-5,6,7,8-tetrahydropyrazino[1,2-a]pyrazolo[4,3-d]pyrimidin-10(1H)-one], the IC50 was more than 10 µM.

With `COc1ccc(CN2CCn3c(nn4c(C5CCOC5)ncc4c3=O)C2)cc1` (racemic) [Compound I-232, (±)-7-(4-Methoxybenzyl)-3-(tetrahydrofuran-3-yl)-8,9-dihydro-6H-imidazo[5,1-f]pyrazino[2,1-c][1,2,4]triazin-11(7H)-one], the concentration for half-maximal inhibition (IC50) fell in the range of 1 to 10 µM.

In the case of `COc1ccc(CN2Cc3nc4c(cnn4C4CCCC4)c(=O)n3C(C)C2)cc1` (racemic) [Compound I-122, (±)-1-Cyclopentyl-8-(4-methoxybenzyl)-6-methyl-6,7,8,9-tetrahydropyrazino[1,2-a]pyrazolo[3,4-d]pyrimidin-4(1H)-one], the half-maximal inhibitory concentration (IC50) was 1 to 10 µM.

As to `CN1CCn2c(nc3c(cnn3C)c2=O)C1` [Compound I-17, 1,8-Dimethyl-6,7,8,9-tetrahydropyrazino[1,2-a]pyrazolo[3,4-d]pyrimidin-4(1H)-one], the IC50 was more than 10 µM.

As for `CC(C)n1ncc2c(=O)n3c(nc21)CN(C)CC3` [Compound I-18, 1-Isopropyl-8-methyl-6,7,8,9-tetrahydropyrazino[1,2-a]pyrazolo[3,4-d]pyrimidin-4(1H)-one], the IC50 was more than 10 µM.

`Cc1cnc(CN2CCn3c(nc4c(cnn4C4CCCC4)c3=O)C2)cn1` [Compound I-207, 1-Cyclopentyl-8-((5-methylpyrazin-2-yl)methyl)-6,7,8,9-tetrahydropyrazino[1,2-a]pyrazolo[3,4-d]pyrimidin-4(1H)-one] had an IC50 of 1 to 10 µM.

`CC(C)c1nnc2c(=O)n3c(nn12)CN(Cc1ccccn1)CC3` [Compound I-226, 3-Isopropyl-7-(pyridin-2-ylmethyl)-8,9-dihydro-6H-pyrazino[2,1-c][1,2,4]triazolo[3,4-f][1,2,4]triazin-11(7H)-one] displayed an IC50 of more than 10 µM.

The compound `CCOc1cccc(N2CCn3c(nn4c(C5CCCC5)ncc4c3=O)C2)c1` [Compound I-180, 3-Cyclopentyl-7-(3-ethoxyphenyl)-8,9-dihydro-6H-imidazo[5,1-f]pyrazino[2,1-c][1,2,4]triazin-11(7H)-one] showed a half-inhibitory concentration (IC50) of less than 1 µM.

As for `O=c1c2cnn(C3CCCC3)c2nc2n1CCN(Cc1cnccn1)C2` [Compound I-203, 1-Cyclopentyl-8-(pyrazin-2-ylmethyl)-6,7,8,9-tetrahydropyrazino[1,2-a]pyrazolo[3,4-d]pyrimidin-4(1H)-one], the 50% inhibitory concentration (IC50) lay in the range of 1 to 10 µM.

`O=c1c2cnn(C3CCOCC3)c2nc2n1CCN(Cc1ccc(Cl)cc1)C2` [Compound I-211, 8-(4-Chlorobenzyl)-1-(tetrahydro-2H-pyran-4-yl)-6,7,8,9-tetrahydropyrazino[1,2-a]pyrazolo[3,4-d]pyrimidin-4(1H)-one] returned an IC50 of less than 1 µM.

Consider `O=c1c2cnc(C3CCCC3)n2nc2n1CCN(c1ccc(F)cc1)C2` [Compound I-183, 3-Cyclopentyl-7-(4-fluorophenyl)-8,9-dihydro-6H-imidazo[5,1-f]pyrazino[2,1-c][1,2,4]triazin-11(7H)-one], for which the IC50 was less than 1 µM.

As to `CC(C)n1ncc2c(=O)n3c(nc21)CN(Cc1ccc(F)cc1)CC3` [Compound I-138, 8-(4-Fluorobenzyl)-1-isopropyl-6,7,8,9-tetrahydropyrazino[1,2-a]pyrazolo[3,4-d]pyrimidin-4(1H)-one], the IC50 was more than 10 µM.

Compound `CN1CCn2c(nc3[nH]nc(Nc4ccccc4)c3c2=O)C1` [Compound I-49, 8-Methyl-3-(phenylamino)-6,7,8,9-tetrahydropyrazino[1,2-a]pyrazolo[3,4-d]pyrimidin-4(1H)-one] came in with an IC50 of more than 10 µM.

On to `O=c1c2cnn(-c3ccccc3)c2nc2n1CCN(Cc1ccccc1)C2Cc1ccccc1` (racemic) [Compound I-37, (±)-8,9-Dibenzyl-1-phenyl-6,7,8,9-tetrahydropyrazino[1,2-a]pyrazolo[3,4-d]pyrimidin-4(1H)-one], for which the IC50 was more than 10 µM.

In turn, `COc1ccc(C(=O)N2CCn3c(nc4c(cnn4C4CCCC4)c3=O)C2)cc1` [Compound I-116, 1-Cyclopentyl-8-(4-methoxybenzoyl)-6,7,8,9-tetrahydropyrazino[1,2-a]pyrazolo[3,4-d]pyrimidin-4(1H)-one] returned a half-inhibitory concentration (IC50) of less than 1 µM.

Turning to `CC(C)n1ncc2c(=O)n3c(nc21)CN(Cc1ccncc1)CC3` [Compound I-136, 1-Isopropyl-8-(pyridin-4-ylmethyl)-6,7,8,9-tetrahydropyrazino[1,2-a]pyrazolo[3,4-d]pyrimidin-4(1H)-one], the 50% inhibitory concentration (IC50) was in the range of 1 to 10 µM.

For `O=c1c2cnc(C3CCCC3)n2nc2n1CCN(Cc1ccc(Cl)cc1)C2` [Compound I-134, 7-(4-Chlorobenzyl)-3-cyclopentyl-8,9-dihydro-6H-imdazo[5,1-f]pyrazino[2,1-c][1,2,4]triazin-11(7H)-one], the IC50 is less than 1 µM.
